Data: patent publication US20100286145A1, “ISOPHTHALAMIDE DERIVATIVES INHIBITING BETA-SECRETASE ACTIVITY” (CoMentis, Inc., priority 2007, published 2010)

Biological target: memapsin 2 (Homo sapiens, UniProt P56817)
Assay: Inhibition of memapsin 2 beta-secretase activity (fluorogenic substrate FS-2)
Type: biochemical
Details: memapsin 2, pH 4, 37° C., 20 minutes pre-incubation; read-out: M2Ki
Experimental: Potency of compounds were determined by measurement of their inhibition of memapsin 2 activity toward a fluorescent substrate. Kinetic inhibition experiments were performed using the procedure as described in Ermolieff, et al. (Biochemistry 39:12450-12456 (2000), the teachings of which are incorporated hereby in their entirety). Briefly, assays were performed at pH 4, 37° C., by pre-incubation of memapsin 2 enzyme with compound for 20 minutes. Activity measurements were initiated by addition of a fluorogenic substrate FS-2 (Bachem Americas, Torrance, Calif.) MCA-SEVNLDAEFR-DNP (SEQ ID NO.: 2). The substrate was derived from 10 amino acids of the human amyloid precursor protein (APP), with the Swedish variant amino acids at the beta-secretase cleavage site. The terminal amino acid was modified from arginine to lysine to facilitate derivatization with a functional group for detection by autofluorescence. The amino acid sequence of the “core” peptide of the substrate is SEVNLDAEFK (SEQ ID NO.: 3). The amino terminus was derivatized with (7-methoxycoumarin-4-yl)acetyl (MCA), and the epsilon amine of the lysine side chain of the terminal residue (K in sequence SEVNLDAEFK (SEQ ID NO.: 3)) was derivatized with 2,4-dinitorphenyl (DNP).
Fluorescent signal increase over time was measured as a rate of hydrolysis of the peptide substrate. Inhibition of hydrolytic rate was expressed relative to uninhibited controls and fit to a model for tight-binding inhibitors (J. Bieth, in “Proteinase Inhibitors,” Bayer Symposium V, 463-469, 1974, which is herein incorporated by reference for all purposes in its entirety).

Chain of memapsin 2 (P56817 46-501): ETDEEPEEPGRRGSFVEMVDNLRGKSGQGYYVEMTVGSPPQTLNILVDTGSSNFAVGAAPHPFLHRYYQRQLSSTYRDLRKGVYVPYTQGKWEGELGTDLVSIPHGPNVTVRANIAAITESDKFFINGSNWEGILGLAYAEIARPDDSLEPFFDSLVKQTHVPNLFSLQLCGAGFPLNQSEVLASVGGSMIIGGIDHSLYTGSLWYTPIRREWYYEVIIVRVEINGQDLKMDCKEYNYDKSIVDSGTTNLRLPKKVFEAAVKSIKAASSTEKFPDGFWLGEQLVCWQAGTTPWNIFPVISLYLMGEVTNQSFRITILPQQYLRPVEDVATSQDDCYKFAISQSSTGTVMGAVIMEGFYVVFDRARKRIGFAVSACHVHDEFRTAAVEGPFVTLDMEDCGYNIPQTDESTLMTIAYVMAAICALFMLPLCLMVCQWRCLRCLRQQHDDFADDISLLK

Row | Ki [nM] | SMILES
1 | > 501 | C[C@@H](NC(=O)c1cc(C(=O)N[C@@H](Cc2ccccc2)[C@H](O)CNCc2cnn(C(C)(C)C)c2)cc(N(C)S(C)(=O)=O)c1)c1ccccc1 [Compound 138, N1-((2S,3R)-4-((1-tert-butyl-1H-pyrazol-4-yl)methylamino)-3-hydroxy-1-phenylbutan-2-yl)-5-(N-methylmethylsulfonamido)-N3-((R)-1-phenylethyl)isophthalamide]
2 | > 501 | COc1cccc(CNC[C@@H](O)[C@H](Cc2ccccc2)NC(=O)c2cccc(C(=O)N(C)Cc3cccnc3)c2)c1 [Compound 55, N1-((2S,3R)-3-hydroxy-4-(3-methoxybenzylamino)-1-phenylbutan-2-yl)-N3-methyl-N3-(pyridin-3-ylmethyl)isophthalamide]
3 | > 501 | COc1cccc(CNC[C@@H](O)[C@H](Cc2ccccc2)NC(=O)c2cc(C(=O)NCc3nccc(C)n3)cc(N(C)S(C)(=O)=O)c2)c1 [Compound 105, N1-((2S,3R)-3-hydroxy-4-(3-methoxybenzylamino)-1-phenylbutan-2-yl)-5-(N-methylmethylsulfonamido)-N3-((4-methylpyrimidin-2-yl)methyl)isophthalamide]
4 | > 501 | COCCn1ncc(CNC[C@@H](O)[C@H](Cc2ccccc2)NC(=O)c2cccc(C(=O)N(C)Cc3nc(C)cs3)c2)c1C [Compound 132, N1-((2S,3R)-3-hydroxy-4-((1-(2-methoxyethyl)-5-methyl-1H-pyrazol-4-yl)methylamino)-1-phenylbutan-2-yl)-N3-methyl-N3-((4-methylthiazol-2-yl)methyl)isophthalamide]
5 | > 501 | COc1cccc(CNC[C@@H](O)[C@H](Cc2ccccc2)NC(=O)c2cccc(C(=O)N(C)Cc3nccc(C)n3)c2)c1 [Compound 136, N1-((2S,3R)-3-hydroxy-4-(3-methoxybenzylamino)-1-phenylbutan-2-yl)-N3-methyl-N3-((4-methylpyrimidin-2-yl)methyl)isophthalamide]
6 | < 300 | Cc1csc(CN(C)C(=O)c2cccc(C(=O)N[C@@H](Cc3ccccc3)[C@H](O)CNCc3cc(C(C)C)cnc3C)c2)n1 [Compound 153, N1-((2S,3R)-3-hydroxy-4-((5-isopropyl-2-methylpyridin-3-yl)methylamino)-1-phenylbutan-2-yl)-N3-methyl-N3-((4-methylthiazol-2-yl)methyl)isophthalamide]
7 | > 501 | COc1cccc(CNC[C@@H](O)[C@H](Cc2ccccc2)NC(=O)c2cccc(C(=O)N(C)Cc3nc(C)c(C)s3)c2)c1 [Compound 24, N1-((4,5-dimethylthiazol-2-yl)methyl)-N3-((2S,3R)-3-hydroxy-4-(3-methoxybenzylamino)-1-phenylbutan-2-yl)-N1-methylisophthalamide]
8 | > 501 | CSCc1ccc(CNC[C@@H](O)[C@H](Cc2ccccc2)NC(=O)c2cccc(C(=O)N(C)Cc3nc(C)cs3)c2)nc1C [Compound 87, N1-((2S,3R)-3-hydroxy-4-((6-methyl-5-(methylthiomethyl)pyridin-2-yl)methylamino)-1-phenylbutan-2-yl)-N3-methyl-N3-((4-methylthiazol-2-yl)methyl)isophthalamide]

Same assay, conditions: memapsin 2, pH 4, 37° C., fluorogenic substrate FS-2; read-out: M2Ki

Row | SMILES | Ki [nM]
9 | Cc1csc(CN(C)C(=O)c2cc(C(=O)N[C@@H](Cc3ccccc3)[C@H](O)CNCc3cccc(C(F)(F)F)c3)cc(-c3cnco3)c2)n1 [Compound 219, N1-((2S,3R)-3-hydroxy-1-phenyl-4-(3-(trifluoromethyl)benzylamino)butan-2-yl)-N3-methyl-N3-((4-methylthiazol-2-yl)methyl)-5-(oxazol-5-yl)isophthalamide] | < 300
10 | CN(Cc1nc(CF)cs1)C(=O)c1cccc(C(=O)N[C@@H](Cc2ccccc2)[C@H](O)CNCc2cncc(C(C)(C)F)c2)c1 [Compound 281, N1-((4-(fluoromethyl)thiazol-2-yl)methyl)-N3-((2S,3R)-4-((5-(2-fluoropropan-2-yl)pyridin-3-yl)methylamino)-3-hydroxy-1-phenylbutan-2-yl)-N1-methylisophthalamide] | < 300

Continued, values first:

Row | Ki [nM] | SMILES
11 | < 300 | Cc1csc(CN(C)C(=O)c2cccc(C(=O)N[C@@H](Cc3ccccc3)[C@H](O)CNCc3cncc(C(C)CO)c3)c2)n1 (stereo partly drawn) [Compound 314, N1-((2S,3R)-3-hydroxy-4-((5-(1-hydroxypropan-2-yl)pyridin-3-yl)methylamino)-1-phenylbutan-2-yl)-N3-methyl-N3-((4-methylthiazol-2-yl)methyl)isophthalamide]
12 | > 501 | Cc1csc(CNC[C@@H](O)[C@H](Cc2ccccc2)NC(=O)c2cccc(C(=O)N(C)Cc3nc(C)cs3)c2)n1 [Compound 294, N1-((2S,3R)-3-hydroxy-4-((4-methylthiazol-2-yl)methylamino)-1-phenylbutan-2-yl)-N3-methyl-N3-((4-methylthiazol-2-yl)methyl)isophthalamide]
13 | < 300 | Cc1csc(CN(C)C(=O)c2cccc(C(=O)N[C@@H](Cc3ccccc3)[C@H](O)CNCc3cncc(NC(C)C)c3)c2)n1 [Compound 304, N1-((2S,3R)-3-hydroxy-4-((5-(isopropylamino)pyridin-3-yl)methylamino)-1-phenylbutan-2-yl)-N3-methyl-N3-((4-methylthiazol-2-yl)methyl)isophthalamide]
14 | > 501 | Cc1csc(CN(C)C(=O)c2cccc(C(=O)N[C@@H](Cc3ccccc3)[C@H](O)CNCc3cccc(C(F)(F)F)c3O)c2)n1 [Compound 291, N1-((2S,3R)-3-hydroxy-4-(2-hydroxy-3-(trifluoromethyl)benzylamino)-1-phenylbutan-2-yl)-N3-methyl-N3-((4-methylthiazol-2-yl)methyl)isophthalamide]
15 | < 300 | CC(C)c1cncc(CNC[C@@H](O)[C@H](Cc2ccccc2)NC(=O)c2cccc(C(=O)N(C)Cc3nccs3)c2)c1 [Compound 318, N1-((2S,3R)-3-hydroxy-4-((5-isopropylpyridin-3-yl)methylamino)-1-phenylbutan-2-yl)-N3-methyl-N3-(thiazol-2-ylmethyl)isophthalamide]
16 | < 300 | Cc1csc(CN(C)C(=O)c2cc(C(=O)N[C@@H](Cc3ccccc3)[C@H](O)CNCc3cncc(C(C)C)c3)cc(-n3ccnc3)c2)n1 [Compound 300, N1-((2S,3R)-3-hydroxy-4-((5-isopropylpyridin-3-yl)methylamino)-1-phenylbutan-2-yl)-5-(1H-imidazol-1-yl)-N3-methyl-N3-((4-methylthiazol-2-yl)methyl)isophthalamide]
17 | < 300 | Cc1csc(CN(C)C(=O)c2cc(C(=O)N[C@@H](Cc3ccccc3)[C@H](O)CNCc3cncc(C(C)C)c3)cc(-c3cn[nH]c3)c2)n1 [Compound 295, N1-((2S,3R)-3-hydroxy-4-((5-isopropylpyridin-3-yl)methylamino)-1-phenylbutan-2-yl)-N3-methyl-N3-((4-methylthiazol-2-yl)methyl)-5-(1H-pyrazol-4-yl)isophthalamide]
18 | > 501 | COc1ccc(C(F)(F)F)cc1CNC[C@@H](O)[C@H](Cc1ccccc1)NC(=O)c1cccc(C(=O)N(C)Cc2nc(C)cs2)c1 [Compound 282, N1-((2S,3R)-3-hydroxy-4-(2-methoxy-5-(trifluoromethyl)benzylamino)-1-phenylbutan-2-yl)-N3-methyl-N3-((4-methylthiazol-2-yl)methyl)isophthalamide]
